{"source": "patent US8207135B2", "about": "“Compositions for and methods of enhancing the immune response to antigens” (Wittycell, priority 2007, dated 2012)", "key": {"OVA-specific IgG1": {"test_system": "OVA-specific IgG1", "test": "OVA-specific IgG1 ELISA after intramuscular immunization", "type": "in vivo, mouse", "conditions": "FIG. 11; IM, 50 μg OVA with 100 ng adjuvant, 14 days post-injection", "method": "(§1) Mice (6 per group) were injected intramuscularly with 50 μg of OVA either alone or in combination with 100 ng of the indicated adjuvants (Freund's adjuvant was used as a positive control) as follows: • Group 1: […] of Ova with CFA/IFA (Positive control) • Group 2: 50 μg of Ova • Group 3: 50 μg of Ova and 100 ng of αGalCer • Group 4: 50 μg of Ova and 100 ng of PBS-11 • Group 5: 50 μg of Ova and 100 ng of PBS-14 • Group 6: 50 μg of Ova and 100 ng of PBS-57 • Group 7: 50 μg of Ova and 100 ng of PBS-96 At 14 days post-injection, blood samples were collected and ELISAs for IgG1 and IgG2a were performed using mouse monoclonal antibodies specific for OVA isotype IgG1 or IgG2a. The results are shown as the titer of the antibody in peripheral blood in ng/ml. The results for IgG1 are depicted in FIG. 11 and those for IgG2a are depicted in FIG. 12."}, "IFNγ": {"test_system": "IFNγ", "test": "in vivo IFNγ release in sera by ELISA 24 hours after inoculation", "parameters": "species or system C57BL/6 mice", "conditions": "Quantikine kit, FIG. 4", "method": "To test the ability of the adjuvant test compounds to stimulate in vivo cytokine release, C57BL/6 mice were administered the compounds at different concentrations intravenously and the production of IFNγ in sera was measured 24 hours later by ELISA. Groups of 3 mice were inoculated intravenously (tail vein) on day 0 as follows: • Group 1: 100 μl of PBS alone • Group 2: 1 μg of αGalCer in 100 μl of PBS • Group 3: 100 ng of αGalCer in 100 μl of PBS • Group 4: 1 ng of αGalCer in 100 μl of PBS • Group 5: 0.1 ng of αGalCer in 100 μl of PBS • Group 6: 100 ng of αGalCer and 100 μg of Ova in 100 μl of PBS • Group 7: 1 μg of PBS-57 in 100 μl of PBS • Group 8: 100 ng of PBS-57 in 100 μl of PBS • Group 9: 1 ng of PBS-57 in 100 μl of PBS • Group 10: 0.1 ng of PBS-57 in 100 μl of PBS • Group 11: 100 ng of PBS-57 and 400 μg of Ova into 100 μl of PBS • Group 12: 1 μg of PBS-14 in 100 μl of PBS • Group 13: 100 ng of PBS-14 in 100 μl of PBS • Group 14: 1 ng of PBS-14 in 100 μl of PBS • Group 15: 0.1 ng of PBS-14 in 100 μl of PBS • Group 16: 100 ng of PBS-14 and 400 μg of Ova in 100 μl of PBS • Group 17: 1 μg of PBS-96 in 100 μl of PBS • Group 18: 100 ng of PBS-96 in 100 μl of PBS • Group 19: 1 ng of PBS-96 in 100 μl of PBS • Group 20: 0.1 ng of PBS-96 in 100 μl of PBS • Group 21: 100 ng of PBS-96 and 400 μg of Ova in 100 μl of PBS. 24 hours after inoculation, blood samples were collected from the mice and IFNγ levels were detected by ELISA kit. Two ELISA kits were used, Quantikine mouse IFNγ (RD systems) was used to test all samples and ELISA mIFNγ (Diaclone) was used to test group 1, 2, 3, 6, 7, 8, 11, 12, 13, 16, 17, 18 and 21. All sera were diluted before use in ELISA as follows:\nResults are expressed as IFNγ concentration (pg/ml) in sera and take into account the dilution factor. FIG. 4 depicts results using the Quantikine mouse IFNγ kit by RD systems. FIG. 4A depicts results of IFNγ levels for mice immunized with PBS-57, FIG. 4B depicts results of IFNγ levels for mice immunized with PBS-14, FIG. 4C depicts results of IFNγ levels for mice immunized with PBS-96 and FIG. 4D depicts results of IFNγ levels for mice immunized with αGalCer. At 0.1 ng, all adjuvant candidates induce cytokine release, but mice immunized with αGalCer produced three- or four-fold less IFNγ than mice immunized with PBS-57, PBS-14 or PBS-96 (1540.57±397.53 pg/ml, 4398.05±880.86 pg/ml, 6669.31±1231.82 pg/ml, 5823.33±720.69 pg/ml respectively).\nAnother set of mice were used to compare the ability of adjuvant compounds to stimulate in vivo cytokine release by the method described above. Five groups of C57BL/6 mice were administered 100 ng of PBS-57, PBS-14, PBS-96, or PBS-11 in 100 μl PBS or 100 μl PBS alone intravenously. The production of IFNγ in sera was measured 24 hours later by ELISA. FIG. 5 depicts results for mice immunized with 100 ng of PBS-11, PBS-96, PBS-14 and PBS-57."}, "[1]": {"test_system": "CD8+ T cells responsive to OVA", "test": "SIINFEKL pentamer assay of OVA-specific CD8+ T cells (FACS)", "type": "in vivo, mouse", "conditions": "IM, days 0 and 14, blood day 21", "method": "To verify the results obtained using the in vivo cytotoxicity assay described in the Examples above, similar experiments were performed and CD8+ T cell activation was determined by measuring the percentage of OVA-specific CD8+ T cells using a pentamer assay. Briefly, mice were injected intramuscularly with the indicated amounts of OVA and test adjuvant compound at either 1 μg or 100 ng per mouse, respectively on day 0 as follows:\nExperiment A: • Group 1: 100 μl of PBS; • Group 2: 50 μg of Ova into 100 μl PBS; • Group 3: 50 μg of Ova with 1 μg αGalCer; • Group 4: 50 μg of Ova with 1 μg PBS-11 • Group 5: 50 μg of Ova with 1 μg PBS-14 • Group 6: 50 μg of Ova with 1 μg PBS-57 • Group 7: 50 μg of Ova with 1 μg PBS-96\nExperiment B: • Group 1: 100 μl of PBS; • Group 2: 50 μg of Ova into 100 μl PBS; • Group 3: 50 μg of Ova with 100 ng αGalCer; • Group 4: 50 μg of Ova with 100 ng PBS-11 • Group 5: 50 μg of Ova with 100 ng PBS-14 • Group 6: 50 μg of Ova with 100 ng PBS-57 • Group 7: 50 μg of Ova with 100 ng PBS-96 A second injection was administered to the mice on day 14 and blood was collected from the mice on day 21. The lymphocytes were collected and analyzed by FACS analysis using H-2 K^b SIINFEKL pentamer and CD8 antibody to detect CD8+ T cells responsive to OVA."}, "[2]": {"test_system": "Ova-specific target cells", "test": "in vivo cytotoxic specific cell lysis assay (CD8+ T cell response) in immunized mice", "parameters": "species or system mouse"}, "OVA specific IgG2a": {"test_system": "OVA specific IgG2a", "test": "OVA-specific IgG2a ELISA after intramuscular immunization", "type": "in vivo, mouse", "conditions": "FIG. 12; IM, 50 μg OVA with 100 ng adjuvant, 14 days post-injection", "method": "as §1"}}, "data": [{"smiles": "CCCCCCCCCCCCCCCCCCCCCCCC(=O)N[C@@H](CO[C@H]1O[C@H](CNC(C)=O)[C@H](O)[C@H](O)[C@H]1O)[C@H](O)[C@H](O)CCCCCCCCCCCCCC", "note": "[PBS-96]", "values": [{"measurement": "OVA-specific IgG1 titer in peripheral blood", "setting": "OVA-specific IgG1", "value": "able to elicit a robust IgG1 titer"}, {"measurement": "IFNγ concentration in sera", "setting": "IFNγ; 0.1 ng IV", "value": "5823.33 ± 720.69", "unit": "pg/mL"}, {"measurement": "IFNγ concentration in sera", "setting": "IFNγ; 1 ng IV", "value": "6271.95 ± 3737.53", "unit": "pg/mL"}, {"measurement": "IFNγ concentration in sera", "setting": "IFNγ; 100 ng IV", "value": "19679.89 ± 1443.48", "unit": "pg/mL"}, {"measurement": "IFNγ concentration in sera", "setting": "IFNγ; 1 μg IV", "value": "17720.11 ± 2869.97", "unit": "pg/mL"}, {"measurement": "percentage of OVA specific CD8+ T cells", "setting": "[1]; Example 6 Experiment A, FIG. 9, 50 μg Ova with 1 μg adjuvant", "value": "enhanced the percentage of OVA specific CD8+ T cells"}, {"measurement": "percentage of OVA specific CD8+ T cells", "setting": "[1]; Example 6 Experiment B, FIG. 10, 50 μg Ova with 100 ng adjuvant", "value": "surprisingly much better at enhancing the CD8+ T cell response"}, {"measurement": "specific lysis of Ova-specific target cells in blood", "setting": "[2]; Example 1, FIG. 1, IV, 1 μg adjuvant with 50 μg Ova, day 11", "value": "resulted in cytotoxic lysis of Ova-specific target cells"}, {"measurement": "average Ova-specific cytotoxic response", "setting": "[2]; Example 2, FIG. 2, IV, 400 μg Ova with or without 1 μg adjuvant, day 11 blood", "value": "89.2±10.3", "unit": "%"}, {"measurement": "average OVA-specific cytotoxic response", "setting": "[2]; Example 2, FIG. 3, IM, 400 μg Ova with or without 1 μg adjuvant, day 11 blood", "value": "50.29±42.6", "unit": "%"}, {"measurement": "average Ova-specific cell lysis", "setting": "[2]; Example 4, FIG. 6, IV, 400 μg Ova with or without 1 μg adjuvant (PBS-57 new formulation), day 11 blood", "value": "89.2±10.3", "unit": "%"}, {"measurement": "enhancement of the CD8+ T cell response (specific lysis) at low doses", "setting": "[2]; Example 5 Experiments A and B, FIGS. 7 and 8, 50 μg OVA with 100 ng or 10 ng adjuvant intramuscularly", "value": "unexpectedly better than other adjuvants"}, {"measurement": "OVA specific IgG2a titer in peripheral blood", "setting": "OVA specific IgG2a", "value": "about as well as Freund's adjuvant"}]}]}
